In this assay the test system is Plasmodium falciparum. Briefly: GSK_TCMDC: Inhibition of Plasmodium falciparum 3D7 in whole erythrocytes, using parasite LDH activity as an index of growth. The settings on record: Plasmodium falciparum, 3D7. In kind it is functional, organism-based.
`Cc1cc(N/N=C/c2ccccc2[N+](=O)[O-])c2cc(C(F)(F)F)ccc2n1`: the XC50 was determined as 750 nM.

With `Cc1cc(N/N=C/c2cccc([N+](=O)[O-])c2)c2ccc(C(F)(F)F)cc2n1`, the XC50 amounted to 876 nM.

In the case of `Nc1nc(N)c2c(ccc3[nH]ccc32)n1`, the XC50 was 1080 nM.

The compound `Fc1cccc(Nc2nc(NCc3ccc4ccsc4c3)nc(Nc3cccc(F)c3)n2)c1` showed an XC50 of 1080 nM.

Consider `COc1ccc(CNc2ccnc(-n3cnc4cc(C)c(C)cc43)n2)cc1Cl`, for which the XC50 was 274 nM.

With `FC(F)(F)c1ccc(NC(=S)N2CCC(CCN3CCC(c4c[nH]c5ccccc45)CC3)CC2)cc1`, the XC50 was 885 nM.

`O=[N+]([O-])c1ccc(C(O)CNCCc2ccccc2)cc1OCc1ccccc1` (centres undefined) displayed an XC50 of 912 nM.

`Brc1cc2c(cc1C=NNc1nc(=Nc3ccccc3)[nH]c(=Nc3ccccc3)[nH]1)OCO2`: the XC50 came to 798 nM.

On to `O=C(O)CCSSc1cccc[n+]1[O-]`, for which the XC50 stood at 808 nM.

As to `COc1ccc(Cc2cnc3nc(N)nc(N)c3c2C)cc1`, the XC50 is 29.1 nM.

In turn, `Cc1cc2[nH]c(-c3ccc(C(=O)NCCCN4CCN(c5cccc(Cl)c5)CC4)s3)nc2cc1Cl` displayed an XC50 of 653 nM.

In the case of `Cn1cncc1C(=O)NC1CCN(c2ccnc(Nc3ccc(F)cc3)n2)C1` (centres undefined), the XC50 was found to be 832 nM.

Take `Oc1ccc(-c2ccccc2)cc1CNC1CCCCC1`: the XC50 came to 497 nM.

In the case of `Cc1ccc(NC(=O)c2cnc(N3CCN(c4ccncc4)CC3)c(Cl)c2)cc1`, the XC50 is 965 nM.

`O=C(Nc1cccc(-c2cccc(-c3nc4cc(C(F)(F)F)ccc4[nH]3)c2)c1)Nc1ccc(F)c(F)c1F` displayed an XC50 of 119 nM.

As for `CCCCCCN1CCCN(Cc2ccc(C(=O)Nc3ccc(CCC)cc3)cc2)CC1`, the XC50 amounted to 661 nM.

As for `CCCCCCCCc1c(C)nc(C)c(Br)c1O`, the XC50 was 824 nM.

In the case of `O=C(Nc1ccc(-c2nc3ccccc3[nH]2)cc1)c1ccc(S(=O)(=O)N2CCc3ccccc32)cc1`, the XC50 amounted to 741 nM.

`CC(C)CNCc1ccc(-c2ccc(CN(CCCN3CCN(C)CC3)C(=O)CCC3CCCC3)cc2)cc1`: the XC50 worked out at 1060 nM.

As to `Cc1cc(OCC(=O)Nc2ccc(-c3nc4ccccc4[nH]3)cc2)cc(C)c1Cl`, the XC50 stood at 742 nM.

`O=C(C1CCCC1)N1CCOC(CCN2CCC(c3ccccc3)CC2)(c2ccc(Cl)c(Cl)c2)C1` (centres undefined): the XC50 was 937 nM.

Compound `c1cc(CNCC2CCN(CC3CCCCC3)CC2)cc(-n2ccnc2)c1` showed an XC50 of 545 nM.

As for `O=C(NC1CCN(CCC(NC(=O)c2ccccc2)c2ccc(Cl)c(Cl)c2)CC1)c1ccc(Cl)cc1` (centres undefined), the XC50 turned out to be 1070 nM.

`Cn1nccc1C(=O)NCCNCc1ccc(-c2cccc(-c3nc4cc(F)ccc4[nH]3)c2)cc1` came in with an XC50 of 218 nM.

Compound `COc1cccc(CCc2ccc(O)c3c2C[C@H]2C[C@H]4[C@H](N(C)C)C(O)=C(C(N)=O)C(=O)[C@@]4(O)C(O)=C2C3=O)c1` yielded an XC50 of 850 nM.

For `C=CCc1cccc(C)c1OCCCON1C(=N)N=C(N)NC1(C)C`, the XC50 worked out at 3.2 nM.

In turn, `CCOc1ccc(Nc2nc(N)c3ccccc3n2)cc1` showed an XC50 of 1150 nM.

Compound `Cc1cc(NCC(c2ccccc2)c2ccccc2)nc(NCc2ccc(C(F)(F)F)cc2)n1` had an XC50 of 246 nM.

Consider `O=C(Nc1cccc(CN2CCCN(Cc3ccc(O)cc3)CC2)c1)c1cccc(F)c1`, for which the XC50 was found to be 896 nM.

For the compound `COCCCNc1nc2cc(OC)c(OC)cc2c2nc(-c3ccccc3)nn12`, the XC50 was determined as 192 nM.

Compound `CCCCCCNCc1c(O)ccc2c(CNCCCCCC)c(O)ccc12` gave an XC50 of 130 nM.

In the case of `CC(=O)Nc1ccc(CN2Cc3ccc(NC(=O)Nc4ccc(Oc5ccccc5)cc4)cc3C2)s1`, the XC50 worked out at 918 nM.

`CCc1cn2c3c(cc(C(=O)N[C@@H](Cc4ccccc4)[C@H](O)CNC4CCOCC4)cc13)N(C)S(=O)(=O)C2` came in with an XC50 of 87.7 nM.

As to `C=CCNc1cc(-c2ccccn2)nc(-c2ccccn2)n1`, the XC50 was 472 nM.

For the compound `N#Cc1cccc(NC(=O)Nc2ccc3c(c2)CCN(C2CCC2)CC3)c1`, the XC50 turned out to be 843 nM.

On to `COc1ccc2c(c1)CCCC2NCCCCNC(=O)c1ccc(NC(=O)c2ccc(Cl)cc2)cc1` (centres undefined), for which the XC50 came to 381 nM.

Turning to `COc1cc(Cc2cnc(N)nc2N)cc(OC(C)C)c1OC`, the XC50 came to 1040 nM.

For the compound `COc1cc(NC(=O)N2CCc3ccc(OCCN(C(C)C)C(C)C)cc32)cc(C(F)(F)F)c1`, the XC50 was 186 nM.

Turning to `CN(C)c1nc2cc(-n3cnc4cc(-c5ccc(Cl)cc5)sc4c3=O)ccc2n1CCCN1CCCCC1`, the XC50 came out at 845 nM.

As to `CCOc1ccc(C=CC(=O)Nc2ccc3nc(N4CCOCC4)cc(C)c3c2)cc1OC`, the XC50 was found to be 901 nM.

`Cc1cccc2nc(-c3cccc(-c4ccc(CNCCCN5CCCC5=O)cc4)c3)[nH]c12` displayed an XC50 of 956 nM.

As for `COc1ccc2[nH]cc(C3=CCN(CC4CC4C(=O)c4ccccc4)CC3)c2n1` (centres undefined), the XC50 turned out to be 270 nM.

In the case of `Cc1cc(O)c(CN(C)Cc2ccc3c(c2)OCCO3)cc1C(C)C`, the XC50 was 672 nM.

For `CN(C)CCn1c(N)c(-c2nc3ccccc3s2)c2nc(C#N)c(C#N)nc21`, the XC50 worked out at 1010 nM.

In turn, `COc1ccc(CN2CCC(CNCCc3ccccc3Cl)CC2)cc1` displayed an XC50 of 1110 nM.

As for `c1ccc(-c2ccc(CNCc3ccc(-c4cccc(-c5nc6ccccc6[nH]5)c4)cc3)s2)nc1`, the XC50 came out at 396 nM.

`CC1(C)NC(N)=NC(=N)N1OCCCCCCOc1ccc(Cl)c2ccccc12` registered an XC50 of 3.2 nM.

Compound `CCOc1cc(CC)ccc1C1CCN(CCN2CCC(NC(=O)c3ccc(-c4ccc(C#N)cc4)cc3)CC2)CC1` registered an XC50 of 610 nM.

`COc1ccc(NC(=O)CCNc2cc(C)nc(NCCc3ccccc3)n2)cc1` returned an XC50 of 1160 nM.

Regarding `Fc1cccc(COc2ccc(-n3ccc4c(NCCCn5ccnc5)ncnc43)cc2Cl)n1`, the XC50 was determined as 1030 nM.

For `COc1cc2nc(N3CCC(CNC(=O)c4ccc(-c5ccc(Cl)cc5)cc4)CC3)nc(N)c2cc1OC`, the XC50 is 147 nM.

With `O=[N+]([O-])c1cccc(CNCC2CCN(CC3CCCCC3)CC2)c1`, the XC50 turned out to be 1290 nM.

`c1cncc(Oc2ccc(Nc3ccnc4cc(-c5cccc(CN6CCOCC6)c5)ccc34)cc2)c1`: the XC50 was determined as 305 nM.

Compound `O=S(=O)(c1cccc2cccnc12)N1CCN(C2CCCCC2)CC1` showed an XC50 of 765 nM.

For the compound `CC(Cc1ccc(OCCN2CCN(c3cccc(Cl)c3)CC2)cc1)NCC(O)c1cccc(Cl)c1` (centres undefined), the XC50 amounted to 1210 nM.

Compound `Cc1cc(C(=O)CN2C(=O)NC3(CCOc4ccccc43)C2=O)c(C)n1Cc1ccco1` (centres undefined) registered an XC50 of 605 nM.

Consider `CC1CC1C(=O)NC1CCN(CC2(c3ccccc3)CCCCC2)CC1` (centres undefined), for which the XC50 turned out to be 637 nM.

In turn, `Cc1ccc(S(=O)(=O)N2CCCN(C(=O)c3cc(-c4ccccc4)[nH]n3)CC2)cc1` had an XC50 of 84.3 nM.

As for `c1ccc2c(c1)CN(CC1CC1)CC1(CCN(Cc3c[nH]c4cnccc34)CC1)O2`, the XC50 turned out to be 900 nM.

In turn, `Cc1cc(F)ccc1C1CCN(CCCCNC(=O)c2ccc(NC(=O)c3ccc(Cl)cc3)cc2)CC1` showed an XC50 of 692 nM.

Consider `CC(CCc1ccc(OCc2ccccc2)cc1)NCC(O)c1ccccc1` (centres undefined), for which the XC50 came out at 1100 nM.

Take `O=C(Nc1ccccc1O)c1ccc(S(=O)(=O)c2ccc(Cl)cc2)cc1`: the XC50 came out at 1350 nM.

`NC(=O)c1ccccc1OCC(=O)Nc1ccc(-c2cccc(-c3nc4cc(C(F)(F)F)ccc4[nH]3)c2)cc1` displayed an XC50 of 978 nM.

As for `CCOC(=O)CCCc1cc(NC2CCN(C)CC2)nc(Nc2ccc(C)cc2)n1`, the XC50 turned out to be 263 nM.

The compound `Cc1cc(N2CCCN(C)CC2)nc(Nc2ccc(Cl)cc2)n1` yielded an XC50 of 795 nM.

Consider `COCCNCc1ncsc1-c1ccc2c(Nc3ccc(Oc4ccccc4)cc3)ccnc2c1`, for which the XC50 worked out at 905 nM.

`COc1ccc2nccc([C@@H](O)CN3CCC(NC(=O)[C@@H]4Cc5ccccc5CN4C(=O)OC(C)(C)C)CC3)c2c1` showed an XC50 of 892 nM.

The compound `COc1ccc2nccc(NC(=O)OC3CCC(NCc4ccc5c(n4)NC(=O)CS5)CC3)c2c1` (centres undefined) had an XC50 of 924 nM.

Compound `CC[C@H](C)CNC(=O)c1ccnc(-c2cccc(CN3CCC(N4CCCC4)CC3)c2)c1` came in with an XC50 of 851 nM.

`CC(C)c1ccc(C(NC(=O)C2CCCCC2)c2ccc3cccnc3c2O)cc1` (centres undefined): the XC50 came out at 603 nM.

For `CCc1cc2c(=O)c(-c3nc(C)cs3)c(N)oc2c(CN2CCCCC2)c1O`, the XC50 stood at 658 nM.

In turn, `NCC1CCCN1Cc1cccc(-c2cccc(-c3nc4cc(F)ccc4[nH]3)c2)c1` (centres undefined) had an XC50 of 813 nM.

`CCc1ccc(CN2CCC(CN(C(=O)c3ccccc3)c3ccc(Cl)cc3)CC2)cc1`: the XC50 was 991 nM.

In the case of `COc1cc2nc(Nc3ccc4c(cnn4Cc4ccccc4)c3)nc(Nc3ccc4c(cnn4Cc4ccccc4)c3)c2cc1OC`, the XC50 worked out at 194 nM.

Turning to `Cc1cccc2nc(-c3ccc(-c4ccc(NC(=O)C(=O)c5cccn5C)cc4)cc3)[nH]c12`, the XC50 is 819 nM.

As for `CN1CCC(Oc2ccc(CN3CC[C@H](NC(=O)c4ccc(Cl)c(F)c4)C3)c3ccccc23)C1` (some centres undefined), the XC50 stood at 738 nM.

`OC(CNc1ccnc(Nc2cccc(Cl)c2)n1)c1cccc(C(F)(F)F)c1` (centres undefined) displayed an XC50 of 513 nM.

Compound `O=S1(=O)NCc2ccc(Nc3nccc(Nc4ccc5c(cnn5Cc5ccccc5)c4)n3)cc21` gave an XC50 of 750 nM.

On to `Cn1nc(C(=O)N2CCC(c3[nH]ncc3Cc3ccccc3)CC2)c2ccccc2c1=O`, for which the XC50 was found to be 304 nM.

`COc1cc2c(c(OC)c1[N+](=O)[O-])C=CC1(O2)N(C)c2ccc([N+](=O)[O-])cc2C1(C)C` (centres undefined) gave an XC50 of 905 nM.

`COc1ccc(CN2CCC(CNCCc3c(Cl)cccc3Cl)CC2)cc1` returned an XC50 of 435 nM.

`CC(=O)N1N=C(c2ccc(F)cc2)Sc2c1nc(C1CCCCC1)n2C(C)=O` came in with an XC50 of 891 nM.

Compound `Cc1noc(C)c1-c1cccc(CNCc2cccc(-c3ccc(-c4nc5ccccc5[nH]4)s3)c2)c1` displayed an XC50 of 204 nM.

The compound `O=C(C1COc2ccccc2O1)N(CCCn1ccnc1)Cc1csc(-c2ccc(CNCc3ccccc3)cc2)n1` (centres undefined) displayed an XC50 of 619 nM.

Regarding `COCCn1c(-c2nc(-c3ccc(F)cc3)cnc2N)nc2ccccc21`, the XC50 was 872 nM.

On to `O=C(NC1CCC(N2CCC(c3ccccc3C(F)(F)F)CC2)CC1)c1cc2ccccc2[nH]1` (centres undefined), for which the XC50 worked out at 521 nM.

Regarding `COc1cc(OC)cc(-c2nc3ccc(OCCN(C)C)c(C#N)c3[nH]2)c1`, the XC50 came out at 655 nM.

Compound `Cc1cc2cc(-c3ccc(CN)cc3)ccc2nc1N` displayed an XC50 of 1130 nM.

On to `CCc1cc2c(Sc3nnc(N)s3)ncnc2s1`, for which the XC50 turned out to be 659 nM.

Values taken from ChEMBL document CHEMBL1157539, “Thousands of chemical starting points for antimalarial lead identification” (Nature, 2010).
